In patent US20130053385A1, “METHOD OF COMBATING AND CONTROLLING PESTS” (SYNGENTA LIMITED, priority 2009, published 2013):
Read-outs that look alike come from different tables or passages of the source.

Key:
Type in all cases: in vivo
[1] = system: Plutella xylostella (Diamond Back Moth); test: Activity against Plutella xylostella, larvicide, feeding/residual contact activity, preventive (artificial diet MTP, Example B5); details: 120 h, read-out: activity (larval mortality, antifeedant, growth regulation)
Experimental: Activity Against Plutella xylostella (Diamond Back Moth)
(larvicide, feeding/residual contact activity, preventive)
24-well microtiter plate (MTP) with artificial diet is treated with test solutions by pipetting. After drying, the MTP's are infested with larvae (L2)(10-15 per well). After an incubation period of 5 days, samples are checked for larval mortality, antifeedant and growth regulation.

[2] = system: Thrips tabaci (Onion Thrips); test: Activity against Thrips tabaci, mixed population, feeding/residual contact activity, preventive (sunflower leaf discs, Example B3); details: foliar, 144 h, sprayed sunflower leaf discs, 6 days incubation, mixed-age thrips
Experimental: Activity Against Thrips tabaci (Onion Thrips)
(§1) (mixed population, feeding/residual contact activity, preventive)
Sunflower leaf discs are placed on agar in a 24-well microtiter plate and sprayed with test solutions. After drying, the leaf discs are infested with a thrips population of mixed ages. After an incubation period of 6 days, samples are checked for mortality and special effects (e.g. phytotoxicity).

[3] = system: Myzus persicae (Green Peach Aphid); test: Activity against Myzus persicae, mixed population, feeding/residual contact activity, preventive (sunflower leaf discs, Example B1); details: foliar, 144 h, read-out: activity (mortality)
Experimental: Activity Against Myzus persicae (Green Peach Aphid)
as §1
Sunflower leaf discs are placed on agar in a 24-well microtiter plate and sprayed with test solutions. After drying, the leaf discs are infested with an aphid population of mixed ages. After an incubation period of 6 days, samples are checked for mortality and special effects (e.g. phytotoxicity).

[4] = system: Tetranychus urticae (Two-Spotted Spider Mite); test: Activity against Tetranychus urticae, mixed population, feeding/residual contact activity, preventive (bean leaf discs, Example B4); details: foliar, 192 h, read-out: activity (egg, larval and adult mortality)
Source text: Activity Against Tetranychus urticae (Two-Spotted Spider Mite)
as §1
Bean leaf discs on agar in 24-well microtiter plates are sprayed with test solutions. After drying, the leaf discs are infested with mite populations of mixed ages. 8 days later, discs are checked for egg mortality, larval mortality, and adult mortality.

[5] = 400 ppm, artificial diet, L2 larvae, 5 days incubation
[6] = 400 ppm, sprayed sunflower leaf discs, 6 days incubation, mixed-age aphids
[7] = 400 ppm, sprayed bean leaf discs, 8 days, mixed-age mites

SMILES	mortality at 400 ppm [3, 6] [%]	mortality at 400 ppm [4, 7] [%]	also measured
Cc1cc(C)c(C2=C(OC(=O)C(C)(C)C)CC(CC3CCOCC3)C2=O)c(C)c1 (centres unmarked) [Compound P5]			mortality at 400 ppm [1, 5]: > 80%
Cc1cc(C)c(C2=C(OC(=O)C(C)C)CC(CC3CCOC3)C2=O)c(C)c1 (centres unmarked) [Compound P13]			mortality at 400 ppm [2]: > 80%
Cc1cc(C)c(C2=C(OC(=O)C3CC3)CC(CC3CCOC3)C2=O)c(C)c1 (centres unmarked) [Compound P14]	> 80		
Cc1cc(C)c(C2=C(OC(=O)C3CCCCC3)CC(CC3CCOC3)C2=O)c(C)c1 (centres unmarked) [Compound P15]			mortality at 400 ppm [2]: > 80%
CCCCCCC(=O)OC1=C(c2c(C)cc(C)cc2C)C(=O)C(CC2CCOC2)C1 (centres unmarked) [Compound P16]	> 80		
Cc1cc(C)c(C2=C(OC(=O)c3ccccc3)CC(CC3CCOC3)C2=O)c(C)c1 (centres unmarked) [Compound P17]	> 80	> 80	mortality at 400 ppm [2]: > 80%
COc1ccc(C(=O)OC2=C(c3c(C)cc(C)cc3C)C(=O)C(CC3CCOC3)C2)cc1 (centres unmarked) [Compound P18]		> 80	mortality at 400 ppm [2]: > 80%
Cc1cc(C)c(C2=C(OC(=O)OCC(C)C)CC(CC3CCOC3)C2=O)c(C)c1 (centres unmarked) [Compound P23]		> 80	mortality at 400 ppm [2]: > 80%
Cc1cc(C)c(C2=C(OC(=O)OCC(C)(C)C)CC(CC3CCOC3)C2=O)c(C)c1 (centres unmarked) [Compound P24]			mortality at 400 ppm [2]: > 80%
Cc1cc(C)c(C2=C(OC(=O)Oc3ccccc3)CC(CC3CCOC3)C2=O)c(C)c1 (centres unmarked) [Compound P26]			mortality at 400 ppm [2]: > 80%
CCS(=O)(=O)OC1=C(c2c(C)cc(C)cc2C)C(=O)C(CC2CCOC2)C1 (centres unmarked) [Compound P27]			mortality at 400 ppm [2]: > 80%
CCSC(=O)OC1=C(c2c(C)cc(C)cc2C)C(=O)C(CC2CCOC2)C1 (centres unmarked) [Compound P30]			mortality at 400 ppm [2]: > 80%
Cc1cc(C)c(C2=C(OC(=O)OC(C)C)CC(CC3CCOCC3)C2=O)c(C)c1 (centres unmarked) [Compound P43]			mortality at 400 ppm [2]: > 80%
CON1CCC(CC2CC(OC(C)=O)=C(c3c(C)cc(C)cc3C)C2=O)CC1 (centres unmarked) [Compound P50]	> 80		mortality at 400 ppm [2]: > 80%
CON1CCC(CC2CC(OC(=O)c3ccccc3)=C(c3c(C)cc(C)cc3C)C2=O)CC1 (centres unmarked) [Compound P55]		> 80	mortality at 400 ppm [2]: > 80%
CON1CCC(CC2CC(OC(=O)OC(C)C)=C(c3c(C)cc(C)cc3C)C2=O)CC1 (centres unmarked) [Compound P56]		> 80	mortality at 400 ppm [2]: > 80%
Cc1cc(C)c(C2=C(OC(=O)C3CC3)CC(CC3CCN(C(=O)C4CC4)C3)C2=O)c(C)c1 (centres unmarked) [Compound P57]	> 80	> 80	
Cc1cc(Br)cc(C)c1C1=C(OC(=O)C(C)(C)C)CC(CC2CCOCC2)C1=O (centres unmarked) [Compound P66]	> 80		
CC(=O)N1CCC(/C=C2\CC(=O)C(c3c(C)cc(C)cc3C)C2=O)CC1 (centres unmarked) [Compound T15]	> 80		
CON1CCC(CC2CC(=O)C(c3c(C)cc(C)cc3C)C2=O)CC1 (centres unmarked) [Compound T23]	> 80		mortality at 400 ppm [2]: > 80%
CC(=O)N1CCC(CC2CC(=O)C(c3c(C)cc(C)cc3C)C2=O)CC1 (centres unmarked) [Compound T24]	> 80		
Cc1cc(C)c(C2C(=O)C(C)C(CC3CCOC3)C2=O)c(C)c1 (centres unmarked) [Compound T29]	> 80		
CCSC(=O)N1CCC(/C=C2\CC(=O)C(c3c(C)cc(C)cc3C)C2=O)C1 (centres unmarked) [Compound T33]			mortality at 400 ppm [1]: > 80%
Cc1cc(C)c(C2C(=O)C/C(=C\C3CCOC(C)(C)C3)C2=O)c(C)c1 (centres unmarked) [Compound T37]	> 80	> 80	
Cc1cc(Br)cc(C)c1C1C(=O)C/C(=C\C2CCOCC2)C1=O (centres unmarked) [Compound T45]	> 80	> 80	
Cc1cccc(C)c1C1C(=O)CC(CC2CCOCC2)C1=O (centres unmarked) [Compound T52]	> 80	> 80	mortality at 400 ppm [2]: > 80%
CCc1cc(C)cc(C)c1C1C(=O)C/C(=C\C2CCOC2)C1=O (centres unmarked) [Compound T59]	> 80		
Cc1cc(C)c(C2C(=O)CC(CC3CCN(C(=O)Oc4ccccc4)CC3)C2=O)c(C)c1 (centres unmarked) [Compound T68]			mortality at 400 ppm [4]: > 80%; mortality at 400 ppm [3]: > 80%

SMILES	mortality at 400 ppm [3, 6] [%]	mortality at 400 ppm [4, 7] [%]	also measured
CCS(=O)(=O)N1CCC(CC2CC(=O)C(c3c(C)cc(C)cc3C)C2=O)CC1 (centres unmarked) [Compound T95]	> 80	> 80	
COC(=O)N1CCC(CC2CC(=O)C(c3c(C)cc(C)cc3C)C2=O)CC1 (centres unmarked) [Compound T98]		> 80	mortality at 400 ppm [3]: > 80%
Cc1cc(C)c(C2C(=O)CC(CC3CCN(C(=O)c4cc(C)nn4C)CC3)C2=O)c(C)c1 (centres unmarked) [Compound T121]			mortality at 400 ppm [1, 5]: > 80%
Cc1cc(C)c(C2C(=O)CC(CC3C[C@@H]4O[C@H]3[C@@H]3C(=O)NC(=O)[C@@H]34)C2=O)c(C)c1 (some centres unmarked) [Compound T127]			mortality at 400 ppm [1, 5]: > 80%
Cc1cc(C)c(C2C(=O)CC(CC3C[C@@H]4O[C@H]3[C@@H]3C(=O)N(C)C(=O)[C@@H]34)C2=O)c(C)c1 (some centres unmarked) [Compound T128]		> 80	
Cc1cc(C)c(C2C(=O)CC(CC3OCCO3)C2=O)c(C)c1 (centres unmarked) [Compound T130]		> 80	
Cc1cc(C)c(C2C(=O)CC(CC3CCN(C(=O)C(F)(F)C(F)F)C3)C2=O)c(C)c1 (centres unmarked) [Compound T131]		> 80	
Cc1cc(-c2ccc(Cl)cc2F)cc(C)c1C1C(=O)C/C(=C\C2CCOCC2)C1=O (centres unmarked) [Compound T132]	> 80	> 80	
Cc1cc(-c2ccc(OC(F)(F)F)cc2)cc(C)c1C1C(=O)C/C(=C\C2CCOCC2)C1=O (centres unmarked) [Compound T134]		> 80	
Cc1cc(-c2ccc(Cl)cc2F)cc(C)c1C1C(=O)C/C(=C\C2CCOC2)C1=O (centres unmarked) [Compound T135]		> 80	
Cc1cc(-c2ccc(C(F)(F)F)cc2)cc(C)c1C1C(=O)CC(CC2CCOCC2)C1=O (centres unmarked) [Compound T136]		> 80	
Cc1cc(-c2ccc(OC(F)(F)F)cc2)cc(C)c1C1C(=O)CC(CC2CCOCC2)C1=O (centres unmarked) [Compound T137]		> 80	
Cc1cc(Br)cc(C)c1C1C(=O)CC(CC2CCOCC2)C1=O (centres unmarked) [Compound T138]	> 80	> 80	
Cc1cc(-c2ccccc2F)cc(C)c1C1C(=O)CC(CC2CCOCC2)C1=O (centres unmarked) [Compound T139]		> 80	
Cc1cc(-c2ccccc2F)cc(C)c1C1C(=O)CC(CC2CCOC2)C1=O (centres unmarked) [Compound T140]		> 80	
Cc1cc(C)c(C2C(=O)CC(CC3CCN(C(=O)C(C)C)C3)C2=O)c(C)c1 (centres unmarked) [Compound T142]		> 80	
Cc1cc(C)c(C2C(=O)CC(Cc3ccccc3)(CC3CCOC3)C2=O)c(C)c1 (centres unmarked) [Compound T150]	> 80		
Cc1cc(-c2ccc(F)cc2)cc(C)c1C1C(=O)CC(CC2CCOC2)C1=O (centres unmarked) [Compound T158]		> 80	
Cc1cc(C)c(C2C(=O)CC(CC3CCN(C(=O)C(F)(F)C(F)F)CC3)C2=O)c(C)c1 (centres unmarked) [Compound T161]		> 80	
Cc1cc(C)c(C2C(=O)CC(CC3CCN(C(=O)C(F)(F)F)C3)C2=O)c(C)c1 (centres unmarked) [Compound T162]		> 80	
Cc1cc(C)c(C2C(=O)CC(CC3CCN(C(=O)C(F)(F)F)CC3)C2=O)c(C)c1 (centres unmarked) [Compound T163]		> 80	
Cc1ccc(C)c(C2C(=O)CC(CC3CCOCC3)C2=O)c1 (centres unmarked) [Compound T164]		> 80	
Cc1cc(Cl)cc(C)c1C1C(=O)CC(CC2CCOCC2)C1=O (centres unmarked) [Compound T169]	> 80		
Cc1cc(F)cc(C)c1C1C(=O)CC(CC2CCOCC2)C1=O (centres unmarked) [Compound T170]		> 80	
Cc1cc(F)cc(C)c1C1C(=O)CC(CC2CCOC2)C1=O (centres unmarked) [Compound T171]	> 80	> 80	
Cc1cc(C2CC2)cc(C)c1C1C(=O)CC(CC2CCOCC2)C1=O (centres unmarked) [Compound T173]		> 80	
Cc1ccc(C)c(C2C(=O)CC(CC3CCOC3)C2=O)c1 (centres unmarked) [Compound T175]		> 80	
